Test results reported in paper PMC11626117 (Proceedings of the National Academy of Sciences of the …, 2024).

How the values were obtained:
CoaA [1] = target: T1, CoaA (Mycobacterium tuberculosis, UniProt P9WPA7)
CoaA [2] = target: T1, CoaA; assay: ADP-Glo luminescent kinase assay; format: biochemical; settings: 5 mM ATP, 50 mM HEPES, 25 mM KCl, 20 mM MgCl2, 30 min

T1 sequence (P9WPA7 whole entry, looked up): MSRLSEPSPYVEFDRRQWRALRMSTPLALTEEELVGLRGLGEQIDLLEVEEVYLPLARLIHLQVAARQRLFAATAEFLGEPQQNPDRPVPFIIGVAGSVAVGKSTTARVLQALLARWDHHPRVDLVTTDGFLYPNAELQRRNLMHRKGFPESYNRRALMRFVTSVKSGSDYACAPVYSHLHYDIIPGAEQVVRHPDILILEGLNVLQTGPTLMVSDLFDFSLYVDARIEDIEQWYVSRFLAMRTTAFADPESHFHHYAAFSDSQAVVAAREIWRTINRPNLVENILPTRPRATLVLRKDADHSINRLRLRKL

SMILES	ADP-Glo luminescent kinase assay (CoaA [1])	Michaelis-Menten curve, constant not given (CoaA [2])
Nc1ncnc2c1ncn2[C@@H]1O[C@H](COP(=O)(O)OP(=O)(O)OP(=O)(O)O)[C@@H](O)[C@H]1O [ATP]	CoaA showed robust ATPase activity	
CC(C)(CO)[C@@H](O)C(=O)NCCC(=O)O [pantothenate]		CoaA showed robust ATPase activity
